Assay results as given in ChEMBL document CHEMBL3244430, “Antitumor agents. 31. Helenalin sym-dimethylethylenediamine reaction products and related derivatives” (J Med Chem, 1978).

Experiments:
[1] = Cytotoxicity against human Hep2 cells assessed as growth inhibition by microtiter method; format: functional; conditions: HEp-2, read-out: ED50 (the source's name)
W256 = assay: Antitumor activity against rat Walker 256 cells allografted in Sprague-Dawley rat assessed as survival rate at 2.5 mg/kg relative to control; format: functional
P388 [2] = assay: Antitumor activity against mouse P388 cells allografted in DBA/2 mouse assessed as survival rate at 25 mg/kg relative to control; format: functional
P388 [3] = assay: Antitumor activity against mouse P388 cells allografted in DBA/2 mouse assessed as survival rate at 10 mg/kg relative to control; format: functional
[4] = Toxicity in Sprague-Dawley rat allografted with rat Walker 256 cells assessed as mortality after 4 days; format: organism-based; conditions: read-out: MNTD
[5] = Toxicity in DBA/2 mouse allografted with mouse P388 cells assessed as mortality after 4 days; format: organism-based; conditions: read-out: MNTD
P388 [6] = assay: Antitumor activity against mouse P388 cells allografted in DBA/2 mouse assessed as survival rate at 16.8 mg/kg relative to control; format: functional
P388 [7] = assay: Antitumor activity against mouse P388 cells allografted in DBA/2 mouse assessed as survival rate at 48 mg/kg relative to control; format: functional
P388 [8] = assay: Antitumor activity against mouse P388 cells allografted in DBA/2 mouse assessed as survival rate at 4 mg/kg relative to control; format: functional

Row | Compound | EC50 [1] | T/C (W256) | T/C (P388 [2]) | also measured
1 | C[C@@H]1C[C@H]2OC(=O)C(CN(C)C)[C@H]2[C@H](O)[C@]2(C)C(O)CC[C@@H]12 (some centres undefined) | 3.69 µg/mL |  |  | 
2 | N[C@@H](Cc1ccc(N(CCCl)CCCl)cc1)C(=O)O [MELPHALAN] |  | 317% | 168% | 
3 | C=C1C(=O)O[C@@H]2C[C@@H](C)[C@@H]3C=CC(=O)[C@@]3(C)[C@@H](OC(C)=O)[C@H]12 [ANGUSTIBALIN] | 0.29 µg/mL |  | 78% | 
4 | C[C@@H]1C[C@H]2OC(=O)C(CN(C)C)[C@H]2[C@H](O)[C@]2(C)C(=O)C=C[C@@H]12 (some centres undefined) | 0.6 µg/mL |  | 130% | 
5 | C[C@@H]1C[C@H]2OC(=O)C(CN(C)C)[C@H]2[C@H](O)[C@]2(C)C(=O)CC(N(C)C)[C@@H]12 (some centres undefined) | 0.85 µg/mL | 136% |  | T/C (P388 [3]): 102%
6 | C=C1C(=O)O[C@@H]2C[C@@H](C)[C@@H]3C=CC(=O)[C@@]3(C)[C@@H](O)[C@H]12 [HELENALIN] | 0.08 µg/mL | 316% |  | MTD at 96 h [4]: 2.5 mg/kg; MTD at 96 h [5]: 16.8 mg/kg; T/C (P388 [6]): 127%
7 | O=c1[nH]cc(F)c(=O)[nH]1 [FLUOROURACIL] |  |  | 186% | 
8 | C[C@@H]1C[C@H]2OC(=O)[C@@H](C)[C@H]2[C@H](O)[C@]2(C)C(=O)C=C[C@@H]12 | 0.81 µg/mL | 207% |  | T/C (P388 [7]): 138%
9 | C[C@@H]1C[C@@H](OC(=O)/C=C/c2ccccc2)[C@@H](C2CN(C)CCN(C)C2=O)[C@H](O)[C@]2(C)C(=O)C=C[C@@H]12 (some centres undefined) | 2.89 µg/mL |  |  | T/C (P388 [3]): 123%
10 | CC(=O)O[C@H]1[C@H](C2CN(C)CCN(C)C2=O)[C@H](O)C[C@@H](C)[C@@H]2C=CC(=O)[C@]21C (some centres undefined) | 4.96 µg/mL |  | 100% | 
11 | C=C1C(=O)O[C@@H]2C[C@@H](C)[C@@H]3C=CC(=O)[C@@]3(C)[C@@H](OC(=O)/C=C/c3ccccc3)[C@H]12 | 0.04 µg/mL | 157% |  | T/C (P388 [8]): 123%
12 | C[C@@H]1C[C@@H](O)[C@@H]([C@H]2CN(C)CCN(C)C2=O)[C@H](O)[C@]2(C)C(=O)C=C[C@@H]12 | 1.87 µg/mL | 170% | 126% | 
13 | C[C@@H]1C[C@@H](OC(=O)/C=C/c2ccccc2)[C@@H](C2CN(C)CCN(C)C2=O)[C@H](OC(=O)/C=C/c2ccccc2)[C@]2(C)C(=O)C=C[C@@H]12 (some centres undefined) | 0.75 µg/mL | 288% |  | T/C (P388 [3]): 100%
14 | CC(=O)O[C@H]1[C@H](C2CN(C)CCN(C)C2=O)[C@H](OC(=O)/C=C/c2ccccc2)C[C@@H](C)[C@@H]2C=CC(=O)[C@]21C (some centres undefined) | 0.84 µg/mL |  | 102% | 
